Laboratory results from US12121522B2, “Methods of treating cancer with an mTOR inhibitor” (Revolution Medicines, Inc., priority 2022, dated 2024).

Columns and labels:
[1] = tested on: BXF 2211 TSC1^-/- bladder cancer; test: BXF 2211 bladder cancer xenograft; format: in vivo, mouse
Protocol: The antitumor activity of RMC-5552 as a single agent against tumors predicted to be dependent on the mTOR pathway and/or bearing specific PI3K/mTOR pathway-activating mutations (i.e., PIK3CA^mut, phosphatase and tensin homolog [PTEN^LOF], or co-mutation of both and tuberous sclerosis complex [TSC^LOF]) was evaluated in selected CDX and/or PDX models
Table 1. RMC-5552 was administered IP once weekly at 1, 3, 10, and 30 mg/kg. In the breast cancer MCF7 PIK3CA^[…] model, a higher dose of 50 mg/kg once weekly and an alternate dose regimen of 30 mg/kg every 10 days were also evaluated.

4EBP3 mRNA expression = 4EBP3 mRNA expression in whole blood; format: in vivo, human; details: cohorts treated with at least 3.0 mg; sustained over a 6-hour period
From the text: Whole blood was collected from all subjects in dose escalation at CID1 prior to dosing, and 6 timepoints after EOI. In each sample, 4EBP3 mRNA expression was quantified as a pharmacodynamic indicator of mTORC1 inhibition.

mucositis/stomatitis = test: Mouthwash prophylaxis of mucositis in patients on RMC-5552; format: in vivo, human; details: RMC-5552 8 to 12 mg IV weekly; without TM N=20, with TM N=7
Protocol: Table 9 presents data from all patients (N=27) treated either with dexamethasone mouthwash alone, or dexamethasone mouthwash plus tacrolimus mouthwash at 8 mg (N=16), 10 mg (N=8), and 12 mg (N=3) IV QW. Median time on treatment (min, max) was 2.6 months for patients treated at 8 mg IV QW with dexamethasone mouthwash alone (N=13), 1.2 months for patients treated at 8 mg IV QW with dexamethasone mouthwash plus tacrolimus mouthwash (N=3), 0.9 months for patients treated at 10 mg IV QW with dexamethasone mouthwash alone (N=5), 2.0 months for patients treated at 10 mg IV QW with dexamethasone mouthwash plus tacrolimus mouthwash (N=3), 9.1 months for patients treated at 12 mg IV QW with dexamethasone mouthwash alone (N=2), and 0.4 months for patients treated at 12 mg IV QW with dexamethasone mouthwash plus tacrolimus mouthwash (N=1). […] Among all dose levels, the frequency of Grade 3 or worse events, frequency and severity of mucositis, and frequency of AEs leading to dose modification were lower in those patients treated with tacrolimus mouthwash.
Subjects received dexamethasone alone or dexamethasone plus tacrolimus mouthwash(es). […] At baseline (C1D1 predose), subjects rinse with the mouthwash(es) once at least 15 minutes prior to the first dose of study intervention. […]

## CO[C@H]1C[C@@H]2CC[C@@H](C)[C@@](O)(O2)C(=O)C(=O)N2CCCC[C@H]2C(=O)O[C@H]([C@H](C)C[C@@H]2CC[C@@H](OC(=O)NCCOCCOCCOCCOCCOCCOCCOCCOCCC(=O)N3CCc4cc(Cn5nc(-c6ccc7oc(N)nc7c6)c6c(N)ncnc65)ccc4C3)[C@H](OC)C2)C[C@@H](O)[C@H](C)/C=C(\C)[C@@H](O)[C@@H](OC)C(=O)[C@H](C)C[C@H](C)/C=C/C=C/C=C/1C [RMC-5552]
[1]; 3 mg/kg IP QW
  tumor regression: 91% regression
[1]; 10 mg/kg IP QW
  tumor regression: 94% regression
4EBP3 mRNA expression
  4EBP3 mRNA expression in whole blood: increased from baseline
mucositis/stomatitis
  rate of grade 3 mucositis/stomatitis: 15%
  rate of mucositis/stomatitis: 75%
